Measured values: patent US20090275539A1, “Nuclear Transcription Factors Regulators” (CTG PHARMA S.R.L., priority 2004, published 2009)

Key:
[1] = test system: inducible nitric oxide synthase (iNOS); test: Zymosan-induced iNOS protein expression in Raw 264.7 macrophages (western blot); type: cell-based, murine; conditions: for INOS protein expression, band intensity: zymosan-stimulated Raw 264.7, 18 hrs
Description: (§1) For the screening approach it was decided to test the compounds object of the present invention and fulfilling the structural general criteria previously described for heme oxygenase-1 (OH-1) and inducible nitric oxide synthase (iNOS). The enzyme tests were performed as described by Vicente A M et al. (Br. J. Pharmacol. 2001, 133, 920-6). The formation of both these two enzymes was associated with the activation of transcription factors, and NF-kB particularly.
(§2) In brief, Raw 264.7 murine macrophage cell line were maintained in a proper culture medium supplemented with 10% fetal bovine serum, 2 mM L-glutamine and penicillin/streptomycin. Suspensions of zymosan A from Saccharomyces cerevisiae in saline were used. After incubation with zymosan and/or test compounds for 18 hrs, cells supernatants were collected to measure protein expression, by western blot analysis. After incubation, macrophages were lysed in 100 microliters of buffer (1% Triton X-100, 1% deoxicholic acid, 20 mM NaCl and 25 mM Tris, pH 7.4) and then centrifuged at 4° C. for 5 min at 10,000×g. The protein content was determined by the Bradford method using bovine serum albumin as standard. Cell lysate (40 micrograms of protein) was mixed with Laemmli sample buffer under reducing conditions. […] Membranes were incubated with specific antibodies: polyclonal antibody against iNOS (1/1000, Cayman Chemical) and anti-OH-1 monoclonal antibody (1/2000, Stressgen). Blots were washed and incubated with peroxidase-conjugated goat IgG (1/20,000). The immunoreactive bands were visualized by an enhanced chemiluminescence system and band intensity quantitated using computer-assisted densitometry.

NF-kB = test: NF-kB-CAT reporter gene assay (CAT activity); type: cell-based; conditions: test compound 100 μm; for NF-kB activity: % of CAT synthesis, TNF-stimulated: human TNF alpha 100 ng/ml
Description: The NF-kB-CAT reporter gene cell line (Lenardo M J et al., Cell 58, 227-9, 1989) and. L29/Ji6 cells (Fratelli M et al, Antioxidants & Redox Signalling 5, 229-235, 2003) were prepared as previously described. Human TNF alpha (100 ng/ml) was used. The chloramphenicol-acetyltransferase (CAT) activity was measured by adding 40 microliters of Tris-HCl buffer (250 mM, ph 7.5) and D-threo-[dichloroacetyl]1,2 ^14C chloramphenicol (10 microliters, 8.3×10^−2 mCi/sample) The reaction was started by the addition of n-butyryl coenzyme A. After 2 h at 37° C., the reaction was stopped by extraction with hexane/xylene (2:1). The upper organic phase containing the reaction product was then recovered, and radioactivity was counted on a beta-counter. The activity on NF-kB was expressed as […].

IL-8 = test: Expression of NF-kB regulated cytokine IL-8 in HeLa cells (ELISA); type: cell-based; conditions: for IL-8 concentration in cell supernatant: 120′; for Inhibition of the production of IL-8: after 120 minutes
Description: (§3) The cells were stimulated with 100 μmol of compound described in example 6 with TNF (200 E/ml) or with PMA (50 ng/ml) and the concentration of IL-6 or IL-8 was measured in the cell supernatant at various interval using ELISA (British Biotechnology Products Ltd.).

heme oxygenase-1 (OH-1) = test: Zymosan-induced OH-1 protein expression in Raw 264.7 macrophages (western blot); type: cell-based, murine; conditions: for OH-1 protein expression, band intensity: zymosan-stimulated Raw 264.7, 18 hrs
Description: as §1, §2

IL-6 = test: Expression of NF-kB regulated cytokine IL-6 in HeLa cells (ELISA); type: cell-based; conditions: for Inhibition of the production of IL-6: after 120 minutes
Description: as §3

[2] = zymosan-stimulated Raw 264.7, summary of table I

## CC(=O)Sc1ccccc1C(=O)Oc1ccc(CO[N+](=O)[O-])cc1 [ATANPE, acetyl thiosalicylic acid 4-(nitroxymethyl)phenyl ester]
[1]; concentration 10 μmol
  INOS protein expression, band intensity: 48 percentage with respect to zymosan
[1]; [2]
  Effect on iNOS formation (in words): inhibit iNOS formation
NF-kB
  NF-kB activity: % of CAT synthesis, Basal: 31%
  NF-kB activity: % of CAT synthesis, TNF-stimulated: 26%
IL-8; PMA (50 ng/ml) + 100 μmol compound
  IL-8 concentration in cell supernatant: 12 pg/mL
IL-8; TNF (200 E/ml) + 100 μmol compound
  IL-8 concentration in cell supernatant: 6 pg/mL
IL-8; first of two values printed with '(PMA stimulation)'
  Inhibition of the production of IL-8: 90%
IL-8; second of two values printed with '(PMA stimulation)'
  Inhibition of the production of IL-8: 97%
Heme oxygenase-1 (OH-1); concentration 10 μmol
  OH-1 protein expression, band intensity: 293 percentage with respect to zymosan
Heme oxygenase-1 (OH-1); [2]
  Effect on OH-1 production (in words): stimulate OH-1 production
IL-6; PMA (50 ng/ml) + 100 μmol compound, 15′
  IL-6 concentration in cell supernatant: 920 pg/mL
IL-6; PMA (50 ng/ml) + 100 μmol compound, 120′
  IL-6 concentration in cell supernatant: 3138 pg/mL
IL-6; TNF (200 E/ml) + 100 μmol compound, 15′
  IL-6 concentration in cell supernatant: 945 pg/mL
IL-6; TNF (200 E/ml) + 100 μmol compound, 120′
  IL-6 concentration in cell supernatant: 1738 pg/mL
IL-6; first of two values printed with '(TNF stimulation)'
  Inhibition of the production of IL-6: 87%
IL-6; second of two values printed with '(TNF stimulation)'
  Inhibition of the production of IL-6: 74%

## CC(=O)Oc1ccccc1C(=O)O [Aspirin, reference compound]
NF-kB
  NF-kB activity: % of CAT synthesis, Basal: 100%
  NF-kB activity: % of CAT synthesis, TNF-stimulated: 92%

## C[C@@H]1C[C@H]2[C@@H]3CCC4=CC(=O)C=C[C@]4(C)[C@@]3(F)[C@@H](O)C[C@]2(C)[C@@]1(O)C(=O)CO [Dexamethasone, dexamethasone]
[1]; concentration 1 μmol
  INOS protein expression, band intensity: 85 percentage with respect to zymosan
Heme oxygenase-1 (OH-1); concentration 1 μmol
  OH-1 protein expression, band intensity: 20 percentage with respect to zymosan

## COc1ccc2c(c1)c(CC(=O)O)c(C)n2C(=O)c1ccc(Cl)cc1 [Indomethacin, indomethacin]
[1]; concentration 1 μmol
  INOS protein expression, band intensity: 78 percentage with respect to zymosan
Heme oxygenase-1 (OH-1); concentration 1 μmol
  OH-1 protein expression, band intensity: 65 percentage with respect to zymosan

## CC(=O)N[C@@H](CS)C(=O)O [N-acetylcysteine]
[1]; concentration 100 μmol
  INOS protein expression, band intensity: 80 percentage with respect to zymosan
Heme oxygenase-1 (OH-1); concentration 100 μmol
  OH-1 protein expression, band intensity: 44 percentage with respect to zymosan

## CS(=O)(=O)Nc1ccc([N+](=O)[O-])cc1OC1CCCCC1 [NS398]
[1]; concentration 10 μmol
  INOS protein expression, band intensity: 120 percentage with respect to zymosan
Heme oxygenase-1 (OH-1); concentration 10 μmol
  OH-1 protein expression, band intensity: 72 percentage with respect to zymosan

## CC(c1cc2ccccc2s1)N(O)C(N)=O (stereo not shown) [Zileuton, zileuton]
[1]; concentration 10 μmol
  INOS protein expression, band intensity: 112 percentage with respect to zymosan
Heme oxygenase-1 (OH-1); concentration 10 μmol
  OH-1 protein expression, band intensity: 125 percentage with respect to zymosan
